For series [1], the system named is A673. The experiment in a line: Cytotoxicity against human A673 cells after 48 hrs by CellTiter-Glo assay. The following applies: A673, 48 h. In general terms: Cellular ATP, detected with luciferase, serves as a proxy for viable cell number.
Series [2] relates to A673. The series can be described thus: Cytotoxicity against human A673 cells assessed as long term cell growth inhibition measured every 4 hrs for 120 hrs by incucyte zoom live cell analysis. The class given is functional, cell-based.
For series [3], the target named is T1, L-lactate dehydrogenase (Homo sapiens, UniProt V9HWB9). The series can be described thus: Inhibition of LDH in human MIAPaCa2 cells assessed as reduction in lactate production preincubated for 2 hrs measured after 30 mins by high throughput fluorescence assay. The class given is cell-based.
A short description of series [4]: Inhibition of pig heart MDH using malic acid as substrate preincubated for 10 mins followed by substrate addition measured up to 5 mins by resorufin-based fluorescence assay. On the set-up: species or system Sus scrofa.
Series [5] concerns the target Isocitrate dehydrogenase [NADP] cytoplasmic (Homo sapiens, UniProt O75874). The series can be described thus: Inhibition of wild type IDH1 (unknown origin) using isocitrate as substrate preincubated for 30 mins followed by substrate addition in presence of NADP+ measured up to 5 mins by resorufin-based fluorescence assay.
Series [6] addresses T1, L-lactate dehydrogenase. The series can be described thus: Inhibition of LDH in human A673 cells assessed as reduction in lactate production preincubated for 2 hrs measured after 30 mins by high throughput fluorescence assay. The class given is cell-based.
In series [7] the test system is MIA PaCa-2. The series can be described thus: Cytotoxicity against human MIAPaCa2 cells after 48 hrs by CellTiter-Glo assay. The following applies: MIA PaCa-2, 48 h.
Series [8] relates to MIA PaCa-2. The experiment in a line: Cytotoxicity against human MIAPaCa2 cells assessed as long term cell growth inhibition measured every 4 hrs for 120 hrs by incucyte zoom live cell analysis. The class given is functional, cell-based.
Series [9] in a line: Drug level in human A673 cells by LC-MS/MS analysis. The class given is ADME, cell-based.
Series [10] is described as follows: Drug level in human MIAPaCa2 cells by LC-MS/MS analysis. The class given is ADME, cell-based. The following applies: mia paca-2.
Series [11] has as its system Mus musculus. The series can be described thus: Clearance in CD1 mouse plasma at 2 mg/kg, iv measured over 24 hrs post dose by LC/MS/MS analysis. The class given is ADME, organism-based. The following applies: in vivo.
For series [12], the system named is Liver. The experiment in a line: Drug metabolism in mouse liver microsomes assessed as glucuronidated metabolite formation measured over 90 mins in presence of NADPH/UDPGA. The class given is ADME, microsome. Background: Microsomes from liver hold many membrane-bound enzymes, among them those of drug oxidation.
Series [13] deals with Liver. The series can be described thus: Drug metabolism in human liver microsomes assessed as glucuronidated metabolite formation measured over 90 mins in presence of NADPH/UDPGA. The class given is ADME, microsome.
The test system of series [14] is Mus musculus. The experiment in a line: AUClast in CD1 mouse plasma at 2 mg/kg, iv measured over 24 hrs post dose by LC/MS/MS analysis. The following applies: in vivo. On the set-up: dose 2 mg/kg, time 0 - last, route intravenous. The class given is ADME, organism-based.
For series [15], the system named is Mus musculus. The series can be described thus: Volume of distribution at steady state in CD1 mouse plasma at 2 mg/kg, iv measured over 24 hrs post dose by LC/MS/MS analysis. The class given is ADME, organism-based. The following applies: in vivo.
The subject of series [16] is Mus musculus. The series can be described thus: Cmax in CD1 mouse plasma at 50 mg/kg, po measured over 24 hrs post dose by LC/MS/MS analysis. The class given is ADME, organism-based. The settings on record: in vivo. Also on record: dose 50 mg/kg, route oral.
Series [17] deals with Mus musculus. The experiment in a line: AUClast in CD1 mouse plasma at 50 mg/kg, po measured over 24 hrs post dose by LC/MS/MS analysis. The class given is ADME, organism-based. The settings on record: in vivo. On the set-up: dose 50 mg/kg, time 0 - last, route oral.
In series [18] the test system is Mus musculus. The series can be described thus: Oral bioavailability in CD1 mouse plasma at 50 mg/kg measured over 24 hrs post dose by LC/MS/MS analysis. The class given is ADME, organism-based. The following applies: in vivo.
Series [19] concerns the target T2, L-lactate dehydrogenase A chain (Homo sapiens, UniProt P00338).
Series [20] addresses T2, L-lactate dehydrogenase A chain. The source holds these as a separate data set.
Description: (§1) Inhibition of human liver LDHA using sodium pyruvate as substrate after 5 mins in presence of NAPDH and in absence of EDTA by diaphorase/resazurin based fluorescence assay
Series [21] has the same target. This is another data set of the same source.
Description: Inhibition of human liver LDHA using sodium pyruvate as substrate after 5 mins in presence of NAPDH and EDTA by diaphorase/resazurin based fluorescence assay
The target is the same in series [22]. This is another data set of the same source.
Description: as §1
The target in series [23] is L-lactate dehydrogenase B chain (Homo sapiens, UniProt P07195). The experiment in a line: Inhibition of human erythrocytes LDHB using sodium pyruvate as substrate after 5 mins in presence of […] by diaphorase/resazurin based fluorescence assay. (Resazurin is reduced to fluorescent resorufin, in cell work by metabolically active cells.)
L-lactate dehydrogenase B chain, sequence (P07195 whole entry): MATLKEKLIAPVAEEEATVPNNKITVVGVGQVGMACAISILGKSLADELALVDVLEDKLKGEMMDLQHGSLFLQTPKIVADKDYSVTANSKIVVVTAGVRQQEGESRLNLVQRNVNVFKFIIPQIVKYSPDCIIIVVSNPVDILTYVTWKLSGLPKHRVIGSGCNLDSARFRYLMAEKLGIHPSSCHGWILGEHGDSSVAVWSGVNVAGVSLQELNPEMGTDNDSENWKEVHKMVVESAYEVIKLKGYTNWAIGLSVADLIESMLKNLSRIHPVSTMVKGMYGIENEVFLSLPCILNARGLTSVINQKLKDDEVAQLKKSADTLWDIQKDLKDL
Series [24] relates to MIA PaCa-2. The experiment in a line: Cytoxicity against human MIAPaCa2 cells assessed as cell growth inhibition at 20 uM after 48 hrs by CellTiter-Glo assay. The class given is functional, cell-based.

The source of these data is ChEMBL document CHEMBL4028893, “Discovery and Optimization of Potent, Cell-Active Pyrazole-Based Inhibitors of Lactate Dehydrogenase (LDH)” (J Med Chem, 2017).

The source made the active and inactive calls. The calls are words filed in the database; no cut-off is given here.

Isocitrate dehydrogenase [NADP] cytoplasmic, sequence (O75874 whole entry): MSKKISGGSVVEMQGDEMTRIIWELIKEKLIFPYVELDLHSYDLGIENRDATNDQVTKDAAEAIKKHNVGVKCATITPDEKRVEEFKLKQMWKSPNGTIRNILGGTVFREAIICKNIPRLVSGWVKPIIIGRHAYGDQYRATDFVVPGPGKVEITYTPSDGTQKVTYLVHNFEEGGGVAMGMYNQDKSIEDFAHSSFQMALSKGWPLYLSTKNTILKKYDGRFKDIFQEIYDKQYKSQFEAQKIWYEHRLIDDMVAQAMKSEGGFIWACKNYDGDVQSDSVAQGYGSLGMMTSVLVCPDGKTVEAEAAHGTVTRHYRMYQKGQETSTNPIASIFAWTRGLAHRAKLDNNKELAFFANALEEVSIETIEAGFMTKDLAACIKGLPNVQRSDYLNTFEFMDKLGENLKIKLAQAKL

With `COc1ncc(-c2ccc3c(Nc4cc(Oc5cc(F)cc(F)c5)cc(C(=O)O)c4)c(S(=O)(=O)NC4CC4)cnc3c2)c(OC)n1`, the concentration for half-maximal inhibition (IC50) (usually the point on the concentration scale where inhibition reaches its midpoint) is > 57 µM with A673 [1]; 0.84 µM in the series on A673 [2]; 12.6 µM on L-lactate dehydrogenase [3]; 37.8 µM in series [4]; > 57 µM in [5]; 14.5 µM on L-lactate dehydrogenase [6]. The IC50 in the series on MIA PaCa-2 [7] is 28.4 µM; with MIA PaCa-2 [8], 1.37 µM. Besides, the Drug uptake entry in series [9] and in series [10] was “Active” throughout.

As for `NS(=O)(=O)c1ccc(Cc2c(-c3cccc(-c4ccccc4)c3)nn(-c3nc(C(=O)O)cs3)c2C2CC2)cc1`, the CL with Mus musculus [11] was 227 L/h/kg. Also, the IC50 came to 42.4 µM in series [4] and 33.5 µM in series [5]. For the same compound, the Drug uptake result in [9] and in series [10] was “Active” in each case. In addition, the Drug metabolism result in the series with Liver [12] and in the series with Liver [13] was “Metabolite_Notdetected” in each case. Further, the AUClast is 0.26 µM·h with Mus musculus [14] and 3.2 µM·h in the series with Mus musculus [17]. The distribution volume (Vdss) – broadly, the apparent volume that relates the amount in the body to the concentration in plasma or blood – with Mus musculus [15] came to 5.6 L/kg. Besides, in the series with Mus musculus [16], the concentration peaked (Cmax) at 1200 nM. Moreover, the F in the series with Mus musculus [18] was 49%.

`O=C(O)c1csc(-n2nc(-c3ccccc3)cc2C(F)(F)F)n1`: the inhibition entry on L-lactate dehydrogenase [3] and on L-lactate dehydrogenase [6] was “inactive” in each case. Further, the EC50 (commonly the concentration at which the effect is half-maximal) in series [19] was > 100 µM. The half-maximal inhibitory concentration (IC50) turned out to be 22.2 µM in [20] and 28.8 µM in [21]. In series [22], this compound returned an Efficacy of 40 to 60%.

`Cc1nc2ccc(NC(=O)CCNC(=O)CCCc3ccc(CC(C(=O)O)C(=O)O)cc3)cc2s1`: the half-inhibitory concentration (IC50) is > 20 µM with A673 [2]; > 57 µM in [4]; 9.2 µM in series [23]; > 57 µM in [5]; > 20 µM in the series with MIA PaCa-2 [8]; 1.34 µM in [21]. For the same compound, the Drug uptake entry in series [9] and in series [10] was “Active” throughout. In [19], the EC50 worked out at 1.6 µM.

As for `NS(=O)(=O)c1ccc(Cc2c(-c3ccc(F)c(F)c3)nn(-c3nc(C(=O)O)cs3)c2O)cc1`, the IC50 (in the series on A673 [1]; in [4]; in series [5]; in the series with MIA PaCa-2 [7]) was > 57 µM in each case. The Drug uptake entry in series [9] and in series [10] was “Active” in each case.

`NS(=O)(=O)c1ccc(Cc2c(-c3cccc(-c4ccccc4)c3)nn(-c3nc(C(=O)O)cs3)c2CC2CC2)cc1` had a CL with Mus musculus [11] of 294 L/h/kg. In series [5], the IC50 came to 29.8 µM. In addition, the Drug uptake result in [9] and in series [10] was “Active” in each case. Moreover, the “growth inhibition (GI)” value in the series on MIA PaCa-2 [24] is “Active”. For the same compound, the Drug metabolism entry in the series on Liver [12] and in the series on Liver [13] was “Metabolite_Notdetected” throughout. Also, the AUClast in the series on Mus musculus [14] was 0.19 µM·h; in the series on Mus musculus [17], 2.5 µM·h. This compound registered a Vdss in the series on Mus musculus [15] of 27 L/kg. In addition, the peak concentration (Cmax) (in general, the highest concentration seen after dosing) in the series on Mus musculus [16] is 1780 nM. For the same compound, the F in the series with Mus musculus [18] came to 50%.
